Series [1] has as its system A549. In words: cells. The following applies: Homo sapiens, A549, 72 h.
Series [2] addresses Cyclin-dependent kinase 2 (Homo sapiens, UniProt P24941). Kind of series: Inhibition of CDK2 (unknown origin).
Series [3] concerns the target Epidermal growth factor receptor (Homo sapiens, UniProt P00533, L858R/T790M). In words: Inhibition of EGFR L858R/T790M (unknown origin).
For series [4], the system named is NCI-H1975. In words: Antiproliferative activity against human NCI-H1975 cells assessed as reduction in cell viability after 24 hrs by MTT assay. The format is functional, cell-based. As to conditions: NCI-H1975, 24 h.
Series [5] concerns PC-9. In words: Antiproliferative activity against human PC-9 cells assessed as reduction in cell growth incubated for 72 hrs by MTT assay. The format is functional, cell-based. The following applies: PC-9, 72 h. A general note: Tetrazolium dyes change colour on reduction, which living cells bring about.
Series [6] is described as follows: Inhibition of PDGFR (unknown origin) in NIH3T3 cells. The format is cell-based, Homo sapiens.
Series [7] is described as follows: Half life in mouse at 10 mg/kg, po by LC-MS/MS analysis. The format is ADME, organism-based. The following applies: in vivo.
Series [8] concerns the target T1, Tyrosine-protein kinase Lck (Homo sapiens, UniProt P06239). In words: Inhibition of human LCK.
Series [9] has as its target Epidermal growth factor receptor (Homo sapiens, UniProt P00533).
In series [10] the test system is KB. Kind of series: cells. The following applies: Homo sapiens, 72 h.
Series [11] deals with Mast/stem cell growth factor receptor Kit (Homo sapiens, UniProt P10721). In words: Inhibition of c-Kit (unknown origin).
In series [12] the target is Proto-oncogene tyrosine-protein kinase Src (Homo sapiens, UniProt P12931). Kind of series: Inhibition of SRC (unknown origin).
For series [13], the target named is Tyrosine-protein kinase Yes (Homo sapiens, UniProt P07947). Kind of series: Inhibition of YES1 (unknown origin).
The subject of series [14] is PC-3. Kind of series: Antiproliferative activity against human PC-3 cells. The format is functional, cell-based.
Series [15] has as its system MDA-MB-231. Kind of series: Antiproliferative activity against human MDA-MB-231 cells. The format is functional, cell-based.
The target in series [16] is T1, Tyrosine-protein kinase Lck.
Series [17] has as its target Vascular endothelial growth factor receptor 2 (Homo sapiens, UniProt P35968). Kind of series: Binding affinity to VEGFR-2 (unknown origin) assessed as inhibition constant.
Series [18] in a line: Cytotoxicity against HUVEC cells assessed as reduction in cell viability after 72 hrs by CellTiter-Glo assay. The format is toxicity, cell-based. The following applies: human. On the technique in general: ATP-based viability assays read luminescence as a measure of living cells.
Series [19] concerns ACHN. In words: Antiproliferative activity against human ACHN cells assessed as reduction in cell viability measured after 48 hrs by SRB assay. The format is functional, cell-based.
For series [20], the system named is HT-29. Kind of series: Antiproliferative activity against human HT-29 cells assessed as reduction in cell viability after 72 hrs by MTS assay. The following applies: HT-29, 72 h. The format is functional, cell-based.
Series [21] can be described thus: Anticancer activity against human NCI-H1975 cells harboring EGFR L858R/T790M mutant assessed as reduction in cell viability measured after 72 hrs by MTT assay. The following applies: NCI-H1975, 72 h. The format is functional, cell-based.
For series [22], the system named is PC-9. Kind of series: Antiproliferative activity against human PC-9 cells harboring EGFR L858R mutant assessed as reduction in cell viability measured after 72 hrs by SRB assay. The format is functional, cell-based. As to conditions: PC-9, 72 h. A general note: The SRB assay estimates cell density from bound dye.
Series [23] has as its system NCI-H1975. In words: Growth inhibition of human NCI-H1975 cells. The format is functional.
Series [24] relates to PC-9. Kind of series: Growth inhibition of human PC-9 cells. The format is functional.
Series [25] has as its system Calu-3. In words: Growth inhibition of human Calu-3 cells. The format is functional.
A short description of series [26]: Aqueous solubility of compound at pH 7.4 by LC-MS/MS analysis. The format is physicochemical. As to conditions: buffer.
The target of series [27] is Voltage-gated inwardly rectifying potassium channel KCNH2 (Homo sapiens, UniProt Q12809). In words: Inhibition of hERG. The format is toxicity.

In brackets after ≈: the same amount, converted by molar mass.

T1 sequence (P06239 whole entry): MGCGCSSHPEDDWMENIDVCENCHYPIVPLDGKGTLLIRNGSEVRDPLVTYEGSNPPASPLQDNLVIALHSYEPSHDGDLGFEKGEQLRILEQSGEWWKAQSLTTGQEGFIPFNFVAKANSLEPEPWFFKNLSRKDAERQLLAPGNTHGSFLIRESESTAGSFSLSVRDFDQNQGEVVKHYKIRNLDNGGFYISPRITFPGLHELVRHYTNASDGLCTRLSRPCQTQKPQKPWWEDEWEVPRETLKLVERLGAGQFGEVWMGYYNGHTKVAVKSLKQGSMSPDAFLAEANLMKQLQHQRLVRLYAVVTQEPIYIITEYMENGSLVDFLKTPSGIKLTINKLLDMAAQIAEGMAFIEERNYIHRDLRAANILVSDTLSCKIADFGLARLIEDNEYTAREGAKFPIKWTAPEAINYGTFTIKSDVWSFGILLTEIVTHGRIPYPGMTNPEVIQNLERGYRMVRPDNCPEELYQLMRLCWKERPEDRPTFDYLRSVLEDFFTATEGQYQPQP
Chain of Voltage-gated inwardly rectifying potassium channel KCNH2 (Q12809 whole entry): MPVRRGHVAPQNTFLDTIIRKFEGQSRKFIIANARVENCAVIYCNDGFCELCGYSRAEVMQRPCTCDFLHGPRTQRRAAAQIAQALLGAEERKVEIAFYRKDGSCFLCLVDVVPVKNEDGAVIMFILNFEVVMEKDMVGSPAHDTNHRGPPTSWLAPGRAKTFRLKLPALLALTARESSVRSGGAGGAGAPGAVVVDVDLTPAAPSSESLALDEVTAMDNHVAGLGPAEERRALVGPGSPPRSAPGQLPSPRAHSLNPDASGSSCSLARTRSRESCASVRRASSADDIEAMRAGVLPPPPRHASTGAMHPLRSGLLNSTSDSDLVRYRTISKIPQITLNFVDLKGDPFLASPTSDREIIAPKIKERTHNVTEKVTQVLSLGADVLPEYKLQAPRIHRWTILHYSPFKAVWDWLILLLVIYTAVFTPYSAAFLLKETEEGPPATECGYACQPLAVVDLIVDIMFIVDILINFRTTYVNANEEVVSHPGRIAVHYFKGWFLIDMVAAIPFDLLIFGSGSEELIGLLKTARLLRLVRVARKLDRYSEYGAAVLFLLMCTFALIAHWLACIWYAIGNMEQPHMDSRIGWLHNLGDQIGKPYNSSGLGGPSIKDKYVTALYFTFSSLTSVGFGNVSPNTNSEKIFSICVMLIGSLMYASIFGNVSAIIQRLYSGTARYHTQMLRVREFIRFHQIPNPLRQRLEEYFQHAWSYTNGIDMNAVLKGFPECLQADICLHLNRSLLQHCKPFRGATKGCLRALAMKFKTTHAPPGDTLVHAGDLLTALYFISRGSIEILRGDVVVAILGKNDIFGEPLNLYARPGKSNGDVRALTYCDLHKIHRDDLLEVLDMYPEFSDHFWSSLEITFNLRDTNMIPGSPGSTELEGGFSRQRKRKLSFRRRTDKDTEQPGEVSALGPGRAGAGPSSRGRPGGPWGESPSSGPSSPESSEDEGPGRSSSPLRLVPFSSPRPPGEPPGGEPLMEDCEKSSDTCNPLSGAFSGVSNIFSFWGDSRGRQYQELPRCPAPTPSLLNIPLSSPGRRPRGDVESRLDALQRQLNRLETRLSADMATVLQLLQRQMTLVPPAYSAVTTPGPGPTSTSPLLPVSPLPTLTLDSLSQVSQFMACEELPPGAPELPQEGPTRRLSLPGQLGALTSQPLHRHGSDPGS
Chain of Epidermal growth factor receptor (Homo sapiens, UniProt P00533, L858R/T790M) (P00533 25-1210 T790M/L858R limits assumed): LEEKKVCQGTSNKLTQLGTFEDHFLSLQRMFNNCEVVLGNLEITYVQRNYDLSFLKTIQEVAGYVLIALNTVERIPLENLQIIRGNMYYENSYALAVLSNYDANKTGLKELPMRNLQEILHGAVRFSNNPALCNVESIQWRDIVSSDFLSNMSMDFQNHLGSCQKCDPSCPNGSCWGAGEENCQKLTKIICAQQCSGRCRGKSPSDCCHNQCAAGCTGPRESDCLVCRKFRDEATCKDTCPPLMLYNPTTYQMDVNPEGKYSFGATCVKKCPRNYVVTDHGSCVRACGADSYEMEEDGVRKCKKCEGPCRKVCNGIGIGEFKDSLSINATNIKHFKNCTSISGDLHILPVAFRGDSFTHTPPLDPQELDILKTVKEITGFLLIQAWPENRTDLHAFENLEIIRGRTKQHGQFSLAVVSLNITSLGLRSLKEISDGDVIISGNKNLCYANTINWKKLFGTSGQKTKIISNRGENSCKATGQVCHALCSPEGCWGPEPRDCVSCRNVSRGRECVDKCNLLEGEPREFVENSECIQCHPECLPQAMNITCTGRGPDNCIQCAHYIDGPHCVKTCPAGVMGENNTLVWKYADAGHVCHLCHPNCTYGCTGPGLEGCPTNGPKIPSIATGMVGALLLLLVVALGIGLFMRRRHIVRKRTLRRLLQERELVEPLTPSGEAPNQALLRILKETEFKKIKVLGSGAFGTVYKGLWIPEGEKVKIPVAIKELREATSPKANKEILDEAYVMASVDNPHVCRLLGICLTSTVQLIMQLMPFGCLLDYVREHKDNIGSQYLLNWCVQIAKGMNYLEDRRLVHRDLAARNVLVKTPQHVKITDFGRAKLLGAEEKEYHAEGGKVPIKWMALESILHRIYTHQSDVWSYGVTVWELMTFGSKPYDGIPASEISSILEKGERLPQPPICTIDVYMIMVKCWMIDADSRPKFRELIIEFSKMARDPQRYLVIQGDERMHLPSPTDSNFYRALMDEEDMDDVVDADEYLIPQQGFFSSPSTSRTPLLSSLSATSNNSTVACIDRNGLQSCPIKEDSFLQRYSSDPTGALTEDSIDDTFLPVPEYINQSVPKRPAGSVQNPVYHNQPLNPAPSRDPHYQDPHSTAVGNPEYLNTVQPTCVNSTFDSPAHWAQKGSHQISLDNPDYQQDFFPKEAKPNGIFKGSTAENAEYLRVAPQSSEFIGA
Chain of Vascular endothelial growth factor receptor 2 (P35968 whole entry): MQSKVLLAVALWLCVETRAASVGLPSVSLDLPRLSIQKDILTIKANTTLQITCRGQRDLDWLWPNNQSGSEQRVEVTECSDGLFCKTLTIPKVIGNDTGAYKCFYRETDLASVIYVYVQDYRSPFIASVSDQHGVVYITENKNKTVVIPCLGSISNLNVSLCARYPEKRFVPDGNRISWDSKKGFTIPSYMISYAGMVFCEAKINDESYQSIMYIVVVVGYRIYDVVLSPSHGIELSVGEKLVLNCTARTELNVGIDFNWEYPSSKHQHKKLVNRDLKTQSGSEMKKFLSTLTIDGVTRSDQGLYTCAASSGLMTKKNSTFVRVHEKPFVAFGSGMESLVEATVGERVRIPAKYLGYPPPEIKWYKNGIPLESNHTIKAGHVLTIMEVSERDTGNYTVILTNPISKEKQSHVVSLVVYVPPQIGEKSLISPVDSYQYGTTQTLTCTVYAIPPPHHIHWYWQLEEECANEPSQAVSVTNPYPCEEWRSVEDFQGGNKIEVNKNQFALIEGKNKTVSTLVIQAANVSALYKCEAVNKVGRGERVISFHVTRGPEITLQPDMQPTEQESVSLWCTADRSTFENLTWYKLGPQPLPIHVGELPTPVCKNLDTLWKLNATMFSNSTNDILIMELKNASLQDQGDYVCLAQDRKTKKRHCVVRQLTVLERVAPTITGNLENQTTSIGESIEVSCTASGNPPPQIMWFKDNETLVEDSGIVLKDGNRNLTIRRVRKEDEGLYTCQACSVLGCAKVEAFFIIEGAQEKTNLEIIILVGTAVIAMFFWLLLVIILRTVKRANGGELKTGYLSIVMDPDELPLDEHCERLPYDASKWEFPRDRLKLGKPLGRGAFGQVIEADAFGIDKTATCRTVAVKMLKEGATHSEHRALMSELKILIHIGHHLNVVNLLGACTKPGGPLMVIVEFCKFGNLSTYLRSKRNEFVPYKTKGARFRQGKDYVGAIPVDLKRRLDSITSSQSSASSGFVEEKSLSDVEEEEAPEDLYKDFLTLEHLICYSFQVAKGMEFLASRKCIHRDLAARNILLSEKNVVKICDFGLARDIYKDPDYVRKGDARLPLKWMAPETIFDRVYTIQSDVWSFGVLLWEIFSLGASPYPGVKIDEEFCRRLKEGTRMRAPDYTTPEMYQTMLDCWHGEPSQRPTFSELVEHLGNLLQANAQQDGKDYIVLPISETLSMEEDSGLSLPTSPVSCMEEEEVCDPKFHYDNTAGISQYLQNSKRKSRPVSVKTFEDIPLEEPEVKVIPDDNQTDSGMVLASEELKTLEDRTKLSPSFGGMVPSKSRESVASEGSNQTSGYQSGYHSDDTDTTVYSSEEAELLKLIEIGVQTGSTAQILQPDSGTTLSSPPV
Chain of Tyrosine-protein kinase Yes (P07947 whole entry): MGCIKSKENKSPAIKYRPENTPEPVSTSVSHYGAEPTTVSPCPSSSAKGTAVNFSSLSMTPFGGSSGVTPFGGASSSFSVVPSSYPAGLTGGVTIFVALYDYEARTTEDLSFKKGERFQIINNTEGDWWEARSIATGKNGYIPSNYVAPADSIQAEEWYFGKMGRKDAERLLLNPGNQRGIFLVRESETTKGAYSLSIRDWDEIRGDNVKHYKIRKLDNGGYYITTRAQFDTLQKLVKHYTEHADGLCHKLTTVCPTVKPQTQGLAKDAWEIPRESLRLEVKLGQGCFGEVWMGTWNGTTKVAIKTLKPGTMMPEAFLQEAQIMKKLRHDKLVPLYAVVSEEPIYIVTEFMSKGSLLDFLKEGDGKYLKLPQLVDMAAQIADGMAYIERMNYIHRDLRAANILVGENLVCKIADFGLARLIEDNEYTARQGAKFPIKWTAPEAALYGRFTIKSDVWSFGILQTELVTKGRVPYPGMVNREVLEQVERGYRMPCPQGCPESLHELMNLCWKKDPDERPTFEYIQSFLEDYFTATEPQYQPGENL

Compound `CC(Oc1cc(-c2cnn(C3CCNCC3)c2)cnc1N)c1c(Cl)ccc(F)c1Cl` (centres undefined) displayed an IC50 in [1] of 20 nM.
Regarding `CCOC(=O)c1c(C)c2cnc(Nc3ccc(N4CCNCC4)cc3)nc2n(C2CCCC2)c1=O`, in series [2], the concentration for half-maximal inhibition (IC50) is more than 5000 nM.
On to `COc1cc(N2CCN(C(C)=O)CC2)ccc1Nc1ncc(Cl)c(-c2c[nH]c3ccccc23)n1`, for which the IC50 in [3] worked out at 100 nM; in [4], 770 nM.
Regarding `C=CC(=O)Nc1cccc(Nc2ncc(Cl)c(-c3c[nH]c4ccccc34)n2)c1`, the IC50 in series [4] amounted to 80 nM; in series [5], 20 nM.
As to `C=CC(=O)Nc1ccc(OC)c(Nc2ncc(Cl)c(-c3c[nH]c4ccccc34)n2)c1`, the IC50 in series [3] came to 60 nM; in [4] it was 20 nM; in series [5] it was 150 nM.
On to `CCN(CC)CCNC(=O)c1c(C)[nH]c(/C=C2\C(=O)Nc3ccccc32)c1C`, for which the IC50 in [6] is 100 nM.
On to `COc1cc2ncnc(Nc3ccc(F)c(Cl)c3)c2cc1OC`, for which the half-life in [7] is 3 h.
`Cc1cccc(Cl)c1NC(=O)c1ccc2nc(Nc3cccc(NCCO)n3)sc2c1`: the IC50 in series [8] amounted to 500 nM.
Turning to `Cc1cccc(Nc2ncnc3ccc(N)cc23)c1`, the IC50 amounted to 50 nM in series [9] and 1000 nM in series [10].
Take `Cc1cc(Nc2ncc(C(=O)Nc3c(C)cccc3Cl)s2)nc(C)n1`: the IC50 was 1000 nM in series [8]; 5 nM in series [11]; 0.5 nM in series [12]; 0.5 nM in series [13]; 9.4 nM in series [14]; 12 nM in series [15]. The compound also showed a half-inhibitory concentration (IC50) in series [16] of 0.4 nM.
Compound `CC(=O)c1c(C)c2cnc(Nc3ccc(N4CCNCC4)cc3)nc2n(C2CCCC2)c1=O` yielded an IC50 in [2] of 11 nM.
Regarding `C(=C\c1n[nH]c2cc(Sc3ccccc3)ccc12)/c1ccccc1`, the Ki in [17] was determined as 4.5 nM.
Regarding `Cc1ccc2cc(NC(=O)c3ccccc3Sc3ccc4c(/C=C/c5ccccn5)n[nH]c4c3)ccc2n1`, the IC50 at 72 h in series [18] stood at 0.8 nM.
In the case of `COc1cc2ncnc(Nc3cccc(C)c3)c2cc1OC`, the half-life in series [7] is 1 h. The compound further displayed a 50% inhibitory concentration (IC50) in [10] of 50 nM.
As for `Cn1c(=O)cc(Nc2ccc(Br)cc2)c2c(=O)n(C3CC3)c(=O)n(-c3ccccc3)c21`, the IC50 was found to be 1270 nM in series [19] and 100 nM in [20].
For `Cn1c(=O)cc(Nc2ccc(Br)cc2F)c2c(=O)n(C3CC3)c(=O)n(-c3ccccc3)c21`, in that order: 325 nM and 15 nM.
As for `C=CC(=O)Nc1cc(Nc2ncc(Cl)c(-c3cnn4ccccc34)n2)c(OC)cc1C(C)CCNC` (centres undefined), the half-inhibitory concentration (IC50) in [21] was 0.6 nM; in series [22], 2 nM; in series [27], 6700 nM. The GI50 is 3 nM in series [23], 4 nM in series [24] and 180 nM in series [25]. Also, the solubility in [26] was found to be 222 µM (≈ 112 µg/mL).
On to `C=CC(=O)Nc1cc(Nc2ncc(Cl)c(-c3cnn4ccccc34)n2)c(OC)cc1C1CC[C@@H](N(C)C)C1` (some centres undefined), for which the IC50 was determined as 2 nM in series [21], 16 nM in series [22] and 5600 nM in series [27]. For the same compound, the GI50 in [23] came to 7 nM; in series [24], 10 nM; in series [25] it was 380 nM. The solubility in series [26] is 28 µM (≈ 14.9 µg/mL).

As a reminder, the IC50 is the concentration that gives 50% inhibition. What is called half-life is the time in which the quantity being followed falls by half. Low readings indicate fast loss, high ones slow loss. The Ki is the equilibrium dissociation constant of an inhibitor or competing ligand from its target. The GI50 is the concentration giving 50% growth inhibition. One may read the solubility as how much of the substance goes into solution per volume. Higher therefore signals a readily soluble substance.

These data come from ChEMBL document CHEMBL6074624, “FDA-approved small molecule kinase inhibitors for cancer treatment (2001-2015): Medical indication, structural optimization, and binding mode Part I” (Bioorg Med Chem, 2024).
